# Measured values from patent US11952363B2, “Piperazine compounds for the treatment of autoimmune disease” (Hoffmann-La Roche Inc., priority 2018, dated 2024).
# pIC50: −log10 of the molar value.
# Key:
# hERG = molecular target: T1, hERG (Homo sapiens, UniProt Q12809); assay: hERG channel inhibition assay (patch-clamp, CHO hERG cells); format: cell-based; conditions: for pIC50 / IC20: CHO hERG cells, whole-cell patch-clamp; for IC20: human, CHO cells stably expressing hERG; for hERG IC20/TLR7 IC50 / hERG IC20/TLR8 IC50 / hERG IC20/TLR9 IC50: safety ratio, >30 suggests sufficient window
# T1 construct: expressed in transfected cells
# Method: The hERG K^+ channels were cloned in humans and stably expressed in a CHO (Chinese hamster ovary) cell line. CHOhERG cells were used for patch-clamp (voltage-clamp, whole-cell) experiments. Cells were stimulated by a voltage pattern to activate hERG channels and conduct I KhERG currents (rapid delayed outward rectifier potassium current of the hERG channel). After the cells were stabilized for a few minutes, the amplitude and kinetics of I KhERG were recorded at a stimulation frequency of 0.1 Hz (6 bpm). Thereafter, the test compound was added to the preparation at increasing concentrations. For each concentration, an attempt was made to reach a steady-state effect, usually, this was achieved within 3-10 min at which time the next highest concentration was applied. The amplitude and kinetics of IKhERG are recorded in each concentration of the drug which were compared to the control values (taken as 100%). […]
# human TLR8 = molecular target: T2, human TLR8 (Homo sapiens, UniProt Q9NR97); assay: HEK293-Blue-hTLR-8 cells assay (SEAP reporter, R848 stimulation); format: cell-based; conditions: HEK293-Blue-hTLR8 cells, R848 ligand, 20 hrs incubation; read-out: HEK/hTLR8 IC50
# T2 sequence (Q9NR97 27-1041): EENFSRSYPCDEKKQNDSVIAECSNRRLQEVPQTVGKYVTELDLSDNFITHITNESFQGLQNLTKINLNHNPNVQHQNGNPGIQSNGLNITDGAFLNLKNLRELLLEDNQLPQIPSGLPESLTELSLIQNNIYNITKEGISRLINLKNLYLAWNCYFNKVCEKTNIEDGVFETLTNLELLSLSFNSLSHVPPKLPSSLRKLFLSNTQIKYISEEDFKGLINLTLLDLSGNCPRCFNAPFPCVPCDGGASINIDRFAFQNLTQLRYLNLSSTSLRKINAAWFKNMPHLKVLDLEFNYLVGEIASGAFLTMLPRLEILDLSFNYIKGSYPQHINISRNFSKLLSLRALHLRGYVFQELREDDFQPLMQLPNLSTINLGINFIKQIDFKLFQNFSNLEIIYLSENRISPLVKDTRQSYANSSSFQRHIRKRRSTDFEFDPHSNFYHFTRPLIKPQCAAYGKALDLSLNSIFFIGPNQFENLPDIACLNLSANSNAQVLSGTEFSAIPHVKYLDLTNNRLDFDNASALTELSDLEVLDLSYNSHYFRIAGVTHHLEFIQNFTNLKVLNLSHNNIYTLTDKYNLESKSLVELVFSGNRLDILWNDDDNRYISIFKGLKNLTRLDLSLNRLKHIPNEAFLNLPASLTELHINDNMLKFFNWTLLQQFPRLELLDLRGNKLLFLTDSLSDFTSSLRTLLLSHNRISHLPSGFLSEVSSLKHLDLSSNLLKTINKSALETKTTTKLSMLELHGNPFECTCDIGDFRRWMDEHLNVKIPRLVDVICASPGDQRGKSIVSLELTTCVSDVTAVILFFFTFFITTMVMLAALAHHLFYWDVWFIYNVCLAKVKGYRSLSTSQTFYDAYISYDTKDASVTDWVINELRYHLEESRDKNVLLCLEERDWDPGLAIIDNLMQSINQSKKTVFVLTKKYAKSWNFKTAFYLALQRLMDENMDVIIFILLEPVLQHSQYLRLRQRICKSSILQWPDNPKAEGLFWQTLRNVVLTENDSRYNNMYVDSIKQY
# Method: The following tests were carried out in order to determine the activity of the compounds of formula (I) in HEK293-Blue-hTLR-7/8/9 cells assay.
# A stable HEK293-Blue-hTLR-8 cell line was purchased from InvivoGen (Cat.#: hkb-htlr8, San Diego, California, USA). These cells were originally designed for studying the stimulation of human TLR8 by monitoring the activation of NF-κB. A SEAP (secreted embryonic alkaline phosphatase) reporter gene was placed under the control of the IFN-β minimal promoter fused to five NF-κB and AP-1-binding sites. The SEAP was induced by activating NF-κB and. AP-1 via stimulating HEK-Blue hTLR8 cells with TLR8 ligands. Therefore the reporter expression was declined by TLR8 antagonist under the stimulation of a ligand, such as R848, for incubation of 20 hrs. The cell culture supernatant SEAP reporter activity was determined using QUANTI-Blue™ kit (Cat.#: rep-qb1, Invivogen, San Diego, Ca, USA) at a wavelength of 640 nm, a detection medium that tunas purple or blue in the presence of alkaline phosphatase.
# HEK293-Blue-hTLR8 cells were incubated at a density of 250,000˜450,000 cells/mL in a volume of 170 μL in a 96-well plate in Dulbecco's Modified Eagle's medium (DMEM) containing 4.5 g/L glucose, 50 U/mL penicillin, […], […], 2 mM L-glutamine, 10% (v/v) heat-inactivated fetal bovine serum with addition of 20 μL test compound in a serial dilution in the presence of final DMSO at 1% and 10 μL of 60 uM R848 in above DMEM, perform incubation under 37° C. in a CO2 incubator for 20 hrs. Then 20 μL of the supernatant from each well was incubated with […] Quanti-blue substrate solution at 37° C. for 2 hrs and the absorbance was read at 620-655 nm using a spectrophotometer. The signalling pathway that TLR8 activation leads to downstream NF-κB activation has been widely accepted, and therefore similar reporter assay was modified for evaluating TLR8 antagonist.
# T1 sequence (Q12809 whole entry): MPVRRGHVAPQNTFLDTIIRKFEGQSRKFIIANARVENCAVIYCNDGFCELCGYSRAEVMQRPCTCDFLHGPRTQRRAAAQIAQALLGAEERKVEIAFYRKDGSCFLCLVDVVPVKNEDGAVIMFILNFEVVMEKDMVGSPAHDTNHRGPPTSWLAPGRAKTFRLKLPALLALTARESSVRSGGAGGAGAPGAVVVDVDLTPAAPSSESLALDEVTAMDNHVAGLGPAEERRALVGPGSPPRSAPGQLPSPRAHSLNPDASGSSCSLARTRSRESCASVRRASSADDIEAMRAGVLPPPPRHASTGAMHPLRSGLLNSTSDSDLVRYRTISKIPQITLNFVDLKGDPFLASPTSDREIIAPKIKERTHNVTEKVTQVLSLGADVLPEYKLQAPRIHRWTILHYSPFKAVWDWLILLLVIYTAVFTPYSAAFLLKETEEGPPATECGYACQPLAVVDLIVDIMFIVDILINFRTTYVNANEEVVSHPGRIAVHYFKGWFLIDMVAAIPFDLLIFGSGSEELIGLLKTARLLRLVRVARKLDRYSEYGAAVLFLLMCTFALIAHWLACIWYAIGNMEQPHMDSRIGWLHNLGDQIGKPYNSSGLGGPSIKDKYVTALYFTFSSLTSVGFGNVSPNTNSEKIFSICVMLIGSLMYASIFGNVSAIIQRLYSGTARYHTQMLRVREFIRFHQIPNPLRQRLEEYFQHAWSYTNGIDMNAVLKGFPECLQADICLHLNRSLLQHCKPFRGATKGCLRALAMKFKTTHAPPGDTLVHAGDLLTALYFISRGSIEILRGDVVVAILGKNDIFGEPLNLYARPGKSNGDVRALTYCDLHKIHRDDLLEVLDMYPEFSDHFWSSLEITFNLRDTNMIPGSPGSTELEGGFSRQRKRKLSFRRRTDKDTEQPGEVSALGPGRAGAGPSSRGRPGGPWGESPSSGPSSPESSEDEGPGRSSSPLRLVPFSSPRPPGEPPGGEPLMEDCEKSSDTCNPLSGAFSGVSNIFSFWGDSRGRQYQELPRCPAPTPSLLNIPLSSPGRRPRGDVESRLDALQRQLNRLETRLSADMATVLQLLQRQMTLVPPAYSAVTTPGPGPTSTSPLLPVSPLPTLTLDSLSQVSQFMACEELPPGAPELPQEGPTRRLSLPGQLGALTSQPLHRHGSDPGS
Structure (SMILES),pIC50 (human TLR8),pIC50 (hERG),IC20 (hERG),hERG IC20/TLR7 IC50 (hERG),hERG IC20/TLR8 IC50 (hERG),hERG IC20/TLR9 IC50 (hERG)
"C[C@@H]1CN(c2ccc(C#N)c3ncccc23)C[C@H](C)N1Cc1ccc(N2CCN(C(=O)CN(C)C)CC2)cn1 [Example 11, 5-[(3S,5R)-4-[[5-[4-[2-(Dimethylamino)acetyl]piperazin-1-yl]-2-pyridyl]methyl]-3,5-dimethyl-piperazin-1-yl]quinoline-8-carbonitrile]",7.46,< 4.70,> 10000 nM,>198,>289,>104
"C[C@@H]1CN(c2ccc(C#N)c3ncccc23)C[C@H](C)N1CC(=O)N1Cc2ccc(N3CCNCC3)cc2C1 [Example 16, 5-[(3R,5S)-3,5-Dimethyl-4-[2-oxo-2-(5-piperazin-1-ylisoindolin-2-yl)ethyl]piperazin-1-yl]quinoline-8-carbonitrile]",7.26,< 4.70,> 10000 nM,>289,>182,>134
"CC1CN(c2ccc(C#N)c3ncccc23)CCN1CC(=O)Nc1ccc(N2CCNCC2)cc1 (stereo not shown) [Example 17, 2-[4-(8-Cyano-5-quinolyl)-2-methyl-piperazin-1-yl]-N-(4-piperazin-1-ylpheny)acetamide]",7.24,,,,,
C[C@@H]1CN(c2ccc(C#N)c3ncccc23)C[C@@H](C)N1Cc1ccc(N2CCNCC2)cc1 [Example 2],7.49,,,,,
"CC1CN(c2ccc(C#N)c3ncccc23)CCN1CC(=O)N1CCC(C2CCN(C)CC2)CC1 (stereo not shown) [Example 19, 5-[3-methyl-4-[2-[4-(1-methyl-4-piperidyl)-1-piperidyl]-2-oxo-ethyl]piperazin-1-yl]quinoline-8-carbonitrile]",7.03,,,,,
"C[C@@H]1CN(c2ccc(C#N)c3ncccc23)C[C@H](C)N1CC(=O)N1CCc2ccc(N3CCNCC3)cc2C1 [Example 15, 5-[(3R,5S)-3,5-dimethyl-4-[2-pxp-2-(7-piperazin-1-yl-3,4-dihydro-1H-isoquinolin-2-yl)ethyl]piperazin-1-yl]quinoline-8-carbonitrile]",7.34,,,,,
"C[C@@H]1CN(c2ccc(C#N)c3ncccc23)C[C@H](C)N1Cc1ncc(N2CCN(C(=O)CN(C)C)CC2)cn1 [Example 6, 5-[(3S,5R)-4-[[5-[4-[2-(Dimethylamino)acetyl]piperazin-1-yl]pyrimidin-2-yl]methyl]-3,5-dimethyl-piperazin-1-yl]quinoline-8-carbonitrile]",7.28,,,,,
"C[C@@H]1CN(c2ccc(C#N)c3ncccc23)C[C@H](C)N1Cc1ccc(N2CC3CNCC(C2)O3)cn1 [Example 8, 5-[(3S,5R)-3,5-Dimethyl-4-[[5-(9-oxa-3,7-diazabicyclo[3.3.1]nonan-3-yl)-2-pyridyl]methyl]piperazin-1-yl]quinoline-8-carbonitrile]",7.44,,,,,
"C[C@@H]1CN(c2ccc(C#N)c3ncccc23)C[C@H](C)N1CC(=O)N1CCc2nc(N3CCNCC3)ccc2C1 [Example 13, 5-[(3R,5S)-3,5-Dimethyl-4-[2-oxo-2-(2-piperazin-1-yl-7,8-dihydro-5H-1,6-naphthyridin-6-yl)ethyl]piperazin-1-yl]quinoline-8-carbonitrile]",7.68,,,,,
"C[C@@H]1CN(c2ccc(C#N)c3ncccc23)C[C@H](C)N1Cc1ccc(N2CCN(C(=O)C3CCCN3)CC2)cn1 (stereo partly drawn) [Example 10, 5-[(3R,5S)-3,5-Dimethyl-4-[[5-[4-(pyrrolidine-2-carbonyl)piperazin-1-yl]-2-pyridyl]methyl]piperazin-1-yl]quinoline-8-carbonitrile]",7.28,< 4.70,> 10000 nM,>145,>197,>242
"C[C@@H]1CN(c2ccc(C#N)c3ncccc23)C[C@H](C)N1Cc1ccc(N[C@@H]2CNC[C@@H]2F)cn1 [Example 9, 5-[(3R,5S)-3,5-Dimethyl-4-[[5-[[(3R,4S)-4-fluoropyrrolidin-3-yl]amino]-2-pyridyl]methyl]piperazin-1-yl]quinoline-8-carbonitrile]",7.66,,,,,
"C[C@@H]1CN(c2ccc(C#N)c3ncccc23)C[C@H](C)N1Cc1ccc(N2CCNCC2CO)cc1 (stereo partly drawn) [Example 12, 5-[(3R,5S)-4-[[4-[2-(Hydroxymethyl)piperazin-1-yl]phenyl]methyl]-3,5-dimethyl-piperazin-1-yl]quinoline-8-carbonitrile]",7.48,,,,,
"CC1CN(c2ccc(C#N)c3ncccc23)CCN1CC(=O)Nc1ccc2c(c1)CCNC2 (stereo not shown) [Example 18, 2-[4-(8-Cyano-5-quinolyl)-2-methyl-piperazin-1yl]-N-(1,2,3,4-tetrahydroisoquinolin-6-yl)acetamide]",7.40,,,,,

# These reach a higher pIC50 (human TLR8). Values come first.
pIC50 (human TLR8),Structure (SMILES),pIC50 (hERG),IC20 (hERG),hERG IC20/TLR7 IC50 (hERG),hERG IC20/TLR8 IC50 (hERG),hERG IC20/TLR9 IC50 (hERG)
7.70,"C[C@@H]1CN(c2ccc(C#N)c3ncccc23)C[C@H](C)N1CC(=O)N1CCc2cc(N3CCNCC3)ccc2C1 [Example 14, 5-[(3R,5S)-3,5-Dimethyl-4-[2-oxo-2-(6-piperazin-1-yl-3,4-dihyrdo-1H-isoquinolin-2-yl)ethyl]piperazin-1-yl]quinoline-8-carbonitrile]",,,,,
7.72,"C[C@@H]1CN(c2ccc(C#N)c3ncccc23)C[C@H](C)N1Cc1ccc(N2CCN(C)CC2)cn1 [Example 7, 5-[(3S,5R)-3,5-dimethyl-4-[[5-(4-methylpiperazin-1-yl)-2-pyridyl]methyl]piperazin-1-yl]quinoline-8-carbonitrile]",,,,,
7.72,"C[C@@H]1CN(c2ccc(C#N)c3ncccc23)C[C@H](C)N1Cc1ncc(N2CCNCC2)cn1 [Example 4, 5-[(3S,5R)-3,5-Dimethyl-4-[(5-piperazin-1-ylpyrimidin-2-yl)methyl]piperazin-1-yl]quinoline-8-carbonitrile]",< 4.70,6300 nM,384,355,45
7.80,"C[C@@H]1CN(c2ccc(C#N)c3ncccc23)C[C@H](C)N1Cc1ccc(N2CCNCC2)cc1 [Example 1, 5-[(3R,5S)-3,5-Dimethyl-4-[(4-piperazin-1-ylphenyl)methyl]piperazin-1-yl]quinoline-8-carbonitrile]",,,,,
7.82,"C[C@@H]1CN(c2ccc(C#N)c3ncccc23)C[C@H](C)N1Cc1ccc(N2CCNCC2)cn1 [Example 5, 5-[(3S,5R)-3,5-Dimethyl-4-[(5-piperazin-1-yl-2-pyridyl)methyl]piperazin-1-yl]quinoline-8-carbonitrile]",< 4.70,> 10000 nM,>833,>666,>119
